Laboratory results as given in patent publication US12509452B2, “Substituted-isoxazoline-containing aromatic compound, preparation method therefor, herbicidal composition and use thereof” (QINGDAO KINGAGROOT CHEMICAL COMPOUND CO., LTD., priority 2019, dated 2025).

How the values were obtained:
Assay in all cases: weeding effect in post-emergence stage
Type in all cases: in vivo
Conditions in all cases: dose 15 g a.i./ha
[1] = system: Rorippa indica
Method in brief: (§1)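 Read-out is fresh weight growth control rate, binned into levels 0-5 (Level 5 above 85%, Level 0 below 5%), recorded 3 weeks after spraying and averaged over three repeats. Plants were treated at the 2-3 leaf stage with 7.5-500 g a.i./ha plus methyl oleate synergist.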

[2] = system: Alopecurus japonicus
Method in brief: as §1

[3] = system: Conyza japonica
Method in brief: as §1

[4] = system: Beckmannia syzigachne
Method in brief: as §1

Compound	weeding effect in post-emergence stage, Rorippa indica (activity level) [1]	weeding effect in post-emergence stage, Alopecurus japonicus (activity level) [2]	weeding effect in post-emergence stage, Conyza japonica (activity level) [3]	weeding effect in post-emergence stage, Beckmannia syzigachne (activity level) [4]
CC(C)COC(=O)C1(C)CC(c2cc(-n3c(=O)n(C)c(=S)n(C)c3=O)c(F)cc2Cl)=NO1 (centres unmarked) [Compound 1-73]	5 (Level 5: growth control rate is above 85%)	5 (Level 5: growth control rate is above 85%)	5 (Level 5: growth control rate is above 85%)	5 (Level 5: growth control rate is above 85%)
Cn1c(=S)n(C)c(=O)n(-c2cc(C3=NOC(C)(C(=O)OC(C)(C)C)C3)c(Cl)cc2F)c1=O (centres unmarked) [Compound 1-74]	5 (Level 5: growth control rate is above 85%)	5 (Level 5: growth control rate is above 85%)	5 (Level 5: growth control rate is above 85%)	5 (Level 5: growth control rate is above 85%)
CCCCCCC(C)OC(=O)C1(C)CC(c2cc(-n3c(=O)n(C)c(=S)n(C)c3=O)c(F)cc2Cl)=NO1 (centres unmarked) [Compound 1-75]	5 (Level 5: growth control rate is above 85%)	5 (Level 5: growth control rate is above 85%)	5 (Level 5: growth control rate is above 85%)	5 (Level 5: growth control rate is above 85%)
C=CCOC(=O)C1(C)CC(c2cc(-n3c(=O)n(C)c(=S)n(C)c3=O)c(F)cc2Cl)=NO1 (centres unmarked) [Compound 1-76]	5 (Level 5: growth control rate is above 85%)	5 (Level 5: growth control rate is above 85%)	5 (Level 5: growth control rate is above 85%)	5 (Level 5: growth control rate is above 85%)
C#CCOC(=O)C1(C)CC(c2cc(-n3c(=O)n(C)c(=S)n(C)c3=O)c(F)cc2Cl)=NO1 (centres unmarked) [Compound 1-79]	5 (Level 5: growth control rate is above 85%)	5 (Level 5: growth control rate is above 85%)	5 (Level 5: growth control rate is above 85%)	5 (Level 5: growth control rate is above 85%)
CC#CCOC(=O)C1(C)CC(c2cc(-n3c(=O)n(C)c(=S)n(C)c3=O)c(F)cc2Cl)=NO1 (centres unmarked) [Compound 1-80]	5 (Level 5: growth control rate is above 85%)	5 (Level 5: growth control rate is above 85%)	5 (Level 5: growth control rate is above 85%)	5 (Level 5: growth control rate is above 85%)
C#CCCOC(=O)C1(C)CC(c2cc(-n3c(=O)n(C)c(=S)n(C)c3=O)c(F)cc2Cl)=NO1 (centres unmarked) [Compound 1-81]	5 (Level 5: growth control rate is above 85%)	5 (Level 5: growth control rate is above 85%)	5 (Level 5: growth control rate is above 85%)	5 (Level 5: growth control rate is above 85%)
C#CC(C)OC(=O)C1(C)CC(c2cc(-n3c(=O)n(C)c(=S)n(C)c3=O)c(F)cc2Cl)=NO1 (centres unmarked) [Compound 1-82]	5 (Level 5: growth control rate is above 85%)	5 (Level 5: growth control rate is above 85%)	5 (Level 5: growth control rate is above 85%)	5 (Level 5: growth control rate is above 85%)
Cn1c(=S)n(C)c(=O)n(-c2cc(C3=NOC(C)(C(=O)OC4CC4)C3)c(Cl)cc2F)c1=O (centres unmarked) [Compound 1-83]	5 (Level 5: growth control rate is above 85%)	5 (Level 5: growth control rate is above 85%)	5 (Level 5: growth control rate is above 85%)	5 (Level 5: growth control rate is above 85%)
Cn1c(=S)n(C)c(=O)n(-c2cc(C3=NOC(C)(C(=O)OCC4CC4)C3)c(Cl)cc2F)c1=O (centres unmarked) [Compound 1-84]	5 (Level 5: growth control rate is above 85%)	5 (Level 5: growth control rate is above 85%)	5 (Level 5: growth control rate is above 85%)	5 (Level 5: growth control rate is above 85%)
Cn1c(=S)n(C)c(=O)n(-c2cc(C3=NOC(C)(C(=O)OCC(F)F)C3)c(Cl)cc2F)c1=O (centres unmarked) [Compound 1-86]	5 (Level 5: growth control rate is above 85%)	5 (Level 5: growth control rate is above 85%)	5 (Level 5: growth control rate is above 85%)	5 (Level 5: growth control rate is above 85%)
Cn1c(=S)n(C)c(=O)n(-c2cc(C3=NOC(C)(C(=O)OCC(F)(F)F)C3)c(Cl)cc2F)c1=O (centres unmarked) [Compound 1-87]	5 (Level 5: growth control rate is above 85%)	5 (Level 5: growth control rate is above 85%)	5 (Level 5: growth control rate is above 85%)	5 (Level 5: growth control rate is above 85%)
Cn1c(=S)n(C)c(=O)n(-c2cc(C3=NOC(C)(C(=O)OCCCF)C3)c(Cl)cc2F)c1=O (centres unmarked) [Compound 1-88]	5 (Level 5: growth control rate is above 85%)	5 (Level 5: growth control rate is above 85%)	5 (Level 5: growth control rate is above 85%)	5 (Level 5: growth control rate is above 85%)
Cn1c(=S)n(C)c(=O)n(-c2cc(C3=NOC(C)(C(=O)OCC(C)(F)F)C3)c(Cl)cc2F)c1=O (centres unmarked) [Compound 1-89]	5 (Level 5: growth control rate is above 85%)	5 (Level 5: growth control rate is above 85%)	5 (Level 5: growth control rate is above 85%)	5 (Level 5: growth control rate is above 85%)
Cn1c(=S)n(C)c(=O)n(-c2cc(C3=NOC(C)(C(=O)OCCC(F)(F)F)C3)c(Cl)cc2F)c1=O (centres unmarked) [Compound 1-90]	5 (Level 5: growth control rate is above 85%)	5 (Level 5: growth control rate is above 85%)	5 (Level 5: growth control rate is above 85%)	5 (Level 5: growth control rate is above 85%)
Cn1c(=S)n(C)c(=O)n(-c2cc(C3=NOC(C)(C(=O)OCC=CCl)C3)c(Cl)cc2F)c1=O (centres unmarked) [Compound 1-92]	5 (Level 5: growth control rate is above 85%)	5 (Level 5: growth control rate is above 85%)	5 (Level 5: growth control rate is above 85%)	5 (Level 5: growth control rate is above 85%)
CCOC(=O)CCC1(C)CC(c2cc(-n3c(=O)n(C)c(=S)n(C)c3=O)c(F)cc2Cl)=NO1 (centres unmarked) [Compound 1-94]	5 (Level 5: growth control rate is above 85%)	5 (Level 5: growth control rate is above 85%)	5 (Level 5: growth control rate is above 85%)	5 (Level 5: growth control rate is above 85%)
CCOC(=O)CCCC1(C)CC(c2cc(-n3c(=O)n(C)c(=S)n(C)c3=O)c(F)cc2Cl)=NO1 (centres unmarked) [Compound 1-96]	5 (Level 5: growth control rate is above 85%)	5 (Level 5: growth control rate is above 85%)	5 (Level 5: growth control rate is above 85%)	5 (Level 5: growth control rate is above 85%)
CCOC(=O)C1ON=C(c2cc(-n3c(=O)n(C)c(=S)n(C)c3=O)c(F)cc2Cl)C1C (centres unmarked) [Compound 1-98]	5 (Level 5: growth control rate is above 85%)	5 (Level 5: growth control rate is above 85%)	5 (Level 5: growth control rate is above 85%)	5 (Level 5: growth control rate is above 85%)
CCOC(=O)C1ON=C(c2cc(-n3c(=O)n(C)c(=S)n(C)c3=O)c(F)cc2Cl)C1C(F)(F)F (centres unmarked) [Compound 1-99]	5 (Level 5: growth control rate is above 85%)	5 (Level 5: growth control rate is above 85%)	5 (Level 5: growth control rate is above 85%)	5 (Level 5: growth control rate is above 85%)
